These are literature values, as cited in publication PMC10597649, “Effect of Astragali radix extract on pharmacokinetic behavior of dapagliflozin in healthy and type 2 diabetic rats” (Frontiers in Pharmacology, 2023).

For this series, the system named is P-gp. Also noted: method as in Huang et al., 2012. Conditions: ref Huang et al., 2012; cited from earlier work.

Regarding `CC(=O)O[C@H]1[C@H](O[C@H]2CC[C@]34C[C@]35CC[C@]3(C)[C@@H]([C@@]6(C)CC[C@@H](C(C)(C)O)O6)[C@@H](O)C[C@@]3(C)[C@@H]5C[C@H](O[C@@H]3O[C@H](CO)[C@@H](O)[C@H](O)[C@H]3O)[C@H]4C2(C)C)OC[C@@H](O)[C@@H]1O` [Astragaloside II], the P-gp inhibition result was “potent P-gp inhibitor”.
